In series [1] the test system is sleep-deprived F-117 pilots. The following applies: 300 mg in three divided 100-mg doses; cited from earlier work.
For the next series, the system named is helicopter pilots. To be noted: 600 mg in three doses, 8 hours of sleep in an 88 hour period; cited from earlier work.
A further series relates to arthritis. The following applies: night versus 8:00 am; cited from earlier work.
The conditions of series [2]: evening versus morning; cited from earlier work.
A further series deals with rhesus monkeys. The following applies: sleep deprivation; cited from earlier work.
Series [3] concerns humans subjected to simulated night shift work. To be noted: cited from earlier work.
For series [4] the following is noted: human cadaver skin dermatomed to 0.5 mm, 10 cm^2, 100 mg/ml in ethanol/water 1/1, 200 ul doses, EVA membrane.
Description: The area of skin permeation was 10 cm^2. […] Each time, 200 µl of formulation was dispensed on a 10 cm^2 surface area of interface of diffusion, separated from the skin by the EVA membrane. […] Additionally, the dose quantity was strictly controlled and monitored. Drug flux samples were obtained using a flow-through Franz cell permeation system with samples collected every 15 minutes. Hourly time point samples were analyzed and recorded. Samples were analyzed by UV/Vis spectrophotometry.
The conditions of series [5]: low, medium and high concentrations, 16 hours, 12 human subjects. Here is the method: The device, described herein, was tested on 12 healthy male volunteers for an open, three-periods, single center, dose-escalation study using nicotine as the model compound.
Series [6] deals with children aged 7 to 15 with ADHD. The following applies: cited from earlier work; for ADHD symptoms and global ratings: parent and clinician ratings, 9 weeks.
In another series the test system is smoking. The following applies: in vivo; cited from earlier work.
The conditions of series [7]: in vivo; cited from earlier work.
Series [8] concerns metastatic renal cell carcinoma. The following applies: continuous infusion, 70% of the daily dose between 15:00 h and 21:00 h; cited from earlier work.
The conditions of series [9]: in vivo; cited from earlier work. The source holds these as a separate data set.
For series [10] the following is noted: oral dosing with 5 mg or transdermally with 39 mg; cited from earlier work.

Structures are written as SMILES. Read-outs that look alike come from different tables or passages of the source.

Consider eleven compounds from patent US9669199B2, “Biosynchronous transdermal drug delivery for longevity, anti-aging, fatigue management, obesity, weight loss, weight management, delivery of nutraceuticals, and the treatment of hyperglycemia, alzheimer's disease, sleep disorders, parkinson's disease, aids, epilepsy, attention deficit disorder, …” (Chrono Therapeutics Inc., priority 2004, dated 2017).

As for `NC(=O)C[S+]([O-])C(c1ccccc1)c1ccccc1` (stereo not shown) [modafinil], the “flight control accuracy sustained to within percent of baseline levels” value in series [1] is listed as “about 27%”. For the same compound, the alertness of pilots entry in the series on helicopter pilots is reported as “can be used to keep pilots alert”.

Take `COc1ccc2c(c1)c(CC(=O)O)c(C)n2C(=O)c1ccc(Cl)cc1` [indomethacin]: the “efficacy and patient compliance by time of dosing” value in the series with arthritis was “better efficacy and patient compliance when dosed at night than when dosed at 8:00 am”.

Regarding `CCCC(CCC)C(=O)O` [valproate], the “absorption by time of day” value in series [2] is “absorb it more slowly and less efficiently when they take it in the evening than in the morning”.

In the case of `O=C(c1ccc2nonc2c1)N1CCOCC1` [CX717], the “performance after receiving the drug” value in the series on rhesus monkeys is “performed faster and better”. The cognitive performance result in series [3] is reported as “did not improve cognitive performance”.

As to `CN1CCCC1c1cccnc1` (stereo not shown) [nicotine], in series [4], the “maximum transdermal flux value” stood at 160 ng/cm^2/hr. Besides, the “blood plasma concentration profile” value in [5] was “clear and distinct peaks and troughs of therapeutically effective and well-targeted blood plasma concentration levels”.

Regarding `COC(=O)C(c1ccccc1)C1CCCCN1` (stereo not shown) [methylphenidate], in [6] (atomoxetine twice daily, methylphenidate 2 or 3 times daily), the tolerability entry is reported as “well tolerated”. Moreover, the “ADHD symptoms and global ratings” value in [6] is “associated with reductions in ADHD symptoms and improved global ratings”.

Take `c1cnc2cc3c(cc2n1)[C@@H]1CNC[C@H]3C1` [varenicline]: in the series on smoking, the “chances of quitting smoking” value was “can more than double the chances of quitting smoking”.

With `CNCC[C@@H](Oc1ccccc1C)c1ccccc1` [atomoxetine], the tolerability entry in series [6] (in vivo) was “well tolerated”. In addition, the “ADHD symptoms and global ratings” value in [6] was “associated with reductions in ADHD symptoms and improved global ratings”. Also, in series [7], the half-life average was 3.12 h and the “time of peak plasma concentration after dosing” value was 1 to 2 h.

On to `O=c1[nH]c(=O)n([C@H]2C[C@H](O)[C@@H](CO)O2)cc1F` [fluorodeoxyuridine], for which the objective response in series [8] is 29%.

`O=C(C[S+]([O-])C(c1ccccc1)c1ccccc1)NO` (stereo not shown) [Adrafinil]: in series [9], the half-life entry is “about 60 minutes” and the “time to peak concentration” value is recorded as “about 60 minutes”.

Consider `CCN(CC)CC#CCOC(=O)C(O)(c1ccccc1)C1CCCCC1` (stereo not shown) [oxybutynin], for which the “mean maximum blood plasma concentration” value in series [10] is 3 ng/mL.
